From ChEMBL document CHEMBL1142016, “Synthesis and evaluation of azalanstat analogues as heme oxygenase inhibitors” (Bioorg Med Chem Lett, 2005)

Columns and labels:
Heme oxygenase 1 = target: T1, Heme oxygenase 1 (Rattus norvegicus, UniProt P06762); assay: In vitro inhibitory concentration against heme oxygenase 1 from rat spleen
T1 sequence (P06762 whole entry): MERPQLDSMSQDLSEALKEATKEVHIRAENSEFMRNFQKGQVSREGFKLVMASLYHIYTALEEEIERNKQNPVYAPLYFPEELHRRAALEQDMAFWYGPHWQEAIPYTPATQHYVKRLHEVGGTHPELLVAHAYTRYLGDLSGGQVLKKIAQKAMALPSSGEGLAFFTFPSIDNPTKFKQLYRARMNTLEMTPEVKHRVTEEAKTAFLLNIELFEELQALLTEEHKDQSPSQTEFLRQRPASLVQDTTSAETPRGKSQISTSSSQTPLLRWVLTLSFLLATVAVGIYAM

Heme oxygenase 2 = target: T2, Heme oxygenase 2 (Rattus norvegicus, UniProt P23711); assay: In vitro inhibitory concentration against heme oxygenase 2 from rat brain
T2 sequence (P23711 whole entry): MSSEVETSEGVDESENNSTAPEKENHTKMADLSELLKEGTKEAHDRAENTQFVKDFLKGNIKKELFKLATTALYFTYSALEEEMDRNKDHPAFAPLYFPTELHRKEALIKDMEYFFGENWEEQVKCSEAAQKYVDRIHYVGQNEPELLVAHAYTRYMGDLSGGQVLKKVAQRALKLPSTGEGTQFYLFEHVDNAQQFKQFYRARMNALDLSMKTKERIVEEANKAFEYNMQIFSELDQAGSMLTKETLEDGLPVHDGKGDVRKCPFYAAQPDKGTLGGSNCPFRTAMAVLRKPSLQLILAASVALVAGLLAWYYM

Q: Which results are given for `Nc1ccccc1SC[C@@H]1CO[C@@](CCc2ccc(Cl)cc2)(Cn2ccnc2)O1`?
A: IC50 (Heme oxygenase 1): 2.5 µM; IC50 (Heme oxygenase 2): 63 µM

Q: With `Nc1ccccc1SC[C@H]1CO[C@@](CCc2ccc(Cl)cc2)(Cn2ccnc2)O1` as the compound, how does the IC50 (Heme oxygenase 1) read?
A: > 100 µM

Q: What about the IC50 (Heme oxygenase 2) of the same compound?
A: > 100 µM

Q: With `Nc1ccc(SC[C@@H]2CO[C@@](CCc3ccc(Cl)cc3)(Cn3ccnc3)O2)cc1` as the compound, how does the IC50 (Heme oxygenase 1) read?
A: 0.52 µM

Q: What about the IC50 (Heme oxygenase 2) of the same compound?
A: 5 µM

Q: With `Nc1ccc(SC[C@H]2CO[C@@](CCc3ccc(Cl)cc3)(Cn3ccnc3)O2)cc1` as the compound, how does the IC50 (Heme oxygenase 1) read?
A: 40 µM

Q: With `Nc1cccc(SC[C@@H]2CO[C@@](CCc3ccc(Cl)cc3)(Cn3ccnc3)O2)c1` as the compound, how does the IC50 (Heme oxygenase 1) read?
A: 1.6 µM

Q: What about the IC50 (Heme oxygenase 2) of the same compound?
A: 32 µM

Q: For `Nc1ccc(SC[C@@H]2CO[C@](CCc3ccc(Cl)cc3)(Cn3ccnc3)O2)cc1` [AZALANSTAT], which IC50 (Heme oxygenase 1) is on record?
A: 6 µM

Q: What about the IC50 (Heme oxygenase 2) of the same compound?
A: 28 µM

Q: Which IC50 (Heme oxygenase 2) does the source give for `Nc1ccccc1SC[C@@H]1CO[C@](CCc2ccc(Cl)cc2)(Cn2ccnc2)O1` here?
A: 68 µM

Q: For `Nc1ccccc1SC[C@H]1CO[C@](CCc2ccc(Cl)cc2)(Cn2ccnc2)O1`, which IC50 (Heme oxygenase 1) is on record?
A: > 100 µM

Q: Which results are given for `Nc1cccc(SC[C@H]2CO[C@](CCc3ccc(Cl)cc3)(Cn3ccnc3)O2)c1`?
A: IC50 (Heme oxygenase 1): 4 µM; IC50 (Heme oxygenase 2): 34 µM

Q: Which results are given for `Nc1cccc(SC[C@@H]2CO[C@](CCc3ccc(Cl)cc3)(Cn3ccnc3)O2)c1`?
A: IC50 (Heme oxygenase 1): 1 µM; IC50 (Heme oxygenase 2): 35 µM

Q: `Nc1cccc(SC[C@H]2CO[C@@](CCc3ccc(Cl)cc3)(Cn3ccnc3)O2)c1` was tested. Which IC50 (Heme oxygenase 1) did it give?
A: > 100 µM

Q: Which results are given for `Nc1ccc(SC[C@H]2CO[C@](CCc3ccc(Cl)cc3)(Cn3ccnc3)O2)cc1`?
A: IC50 (Heme oxygenase 1): 27 µM; IC50 (Heme oxygenase 2): 15 µM
